Laboratory results reported in patent publication US6699989B1, “Antiviral and antimicrobial guanidine or biguanidine derivatives” (priority 2000, dated 2004).
Values after ≈ are worked out from the molar mass of the structure shown. “Also recorded” adds a separate entry of the source. Like-named read-outs stand apart in the source and are kept apart here.

Columns and labels:
[1] = tested on: Klebsiella pneumoniae ATCC 4352; assay: Microdilution broth MIC assay; type: cell-based; details: ATCC4352, Kp, Mueller Hinton broth, about 17 hr
Experimental: (§1) Test organisms. The test organisms are listed in Table 5 along with their source. Prior to assay, overnight bacterial slant cultures were used to inoculate Mueller Hinton broth followed by incubation for 5-7 hr. Each culture was then standardized turbidimetrically to a viable count of about 10^6 colony forming units/ml and used to inoculate the mirotiter assay plates. The viable count after addition to the plates was about 5×10^5 CFU/ml.
(§2) Experimental design. The MIC of the test compounds for the bacterial strains was determined with a microdilution broth assay in 96 well microtiter plates. The test compounds were dissolved in DMSO and then diluted 10-fold in assay medium (Mueller Hinton broth) to obtain final concentrations of 0.128, 1.28, 12.8, and 128 μg/ml. A viability control containing DMSO, diluted in the same manner as the test compounds, was used to confirm that the DMSO was not inhibitory by itself. Trimethoprim (TMP) was used as a positive drug control. The assay plates were incubated at 37° C. for about 17 hr and each assay well observed visually for growth. The MIC was determined at the lowest concentration of drug which inhibited growth. [drawing 32]

[2] = tested on: Streptococcus pneumoniae ATCC 6303; assay: Microdilution broth MIC assay; type: cell-based; details: ATCC6303, Sp, Mueller Hinton broth, about 17 hr
Experimental: as §1, §2

[3] = tested on: Proteus mirabilis ATCC 9921; assay: Microdilution broth MIC assay; type: cell-based; details: ATCC9921, Pm, Mueller Hinton broth, about 17 hr
Experimental: as §1, §2

[4] = tested on: Escherichia coli ATCC 11229; assay: Microdilution broth MIC assay; type: cell-based; details: ATCC11229, Ec, Mueller Hinton broth, about 17 hr
Experimental: as §1, §2

[5] = tested on: Pseudomonas aeruginosa ATCC 15442; assay: Microdilution broth MIC assay; type: cell-based; details: ATCC15442, Pa, Mueller Hinton broth, about 17 hr
Experimental: as §1, §2

CEM-SS cells = type: cell-based
HIV-1 = assay: microbe, parasite or virus in culture; details: Human immunodeficiency virus 1, CEM-SS
Experimental: This is a cytoprotection assay that uses the T-lymphoblastoid tumor cell line CEM-SS and laboratory adapted strains of HIV-1. Upon infection with HIV, the CEM-SS cells form syncytia and eventually die, producing large amounts of progeny virus over the course of 4-6 days at the standard multiplicity of infection (0.01). The antiviral assay measures the ability of a given compound to inhibit the HIV-induced cell killing. […] The activity of the compound is evaluated by measuring cell viability at 6 days post-infection and comparing the viability to that obtained in cell control (cells only), virus control (cells and virus only) and toxicity control (cells and compound only) wells.
Efficacy of the compound in cell culture is measured by increased cell viability in CEM-SS assays or reduction in virus production in PBMC assays. The data obtained yields a dose response curve which can be evaluated to determine doses which yield 25%, 50% and 95% protection from HIV-induced cell killing or virus production. […] These concentrations are reported as the TC25, TC50 and TC95 values. The ratio of toxicity to efficacy constitutes the therapeutic index TC50/IC50.
CEM-SS cells assay measures the ability of the compound to inhibit HIV induced cell killing. The cells are stained at 6 days post-infection with the tetrazolium dye XTT which is converted to a colored formazan product by the mitochondria of viable cells. Protection from cell killing afforded by the test compound is measured by comparison to both cell controls and virus controls. Cell killing in this system is directly related to the amount of virus produced by the infected cells and XTT-formazan production is proportional to the number of viable cells in each well. Toxicity of the compound to the target cells is measured in parallel.
CEM-SS cells (or other established human cell line used in these experiments) were passaged in T-150 flasks for use in the assay. On the day preceding the assay, the cells were split 1:2 to assure they would be in an exponential growth phase at time of infection. On the day of assay the cells were washed twice with tissue culture medium and resuspended in fresh tissue culture medium. Total cell and viability counting was performed using hemacytometer and trypan blue dye exclusion. Cell viability was greater than 95% for the cells to be utilized in the assay. The cells were pelleted and resuspended at 2.5×10^4 cells per ml in tissue culture medium. Cells were added to the drug-containing plates in a volume of 50 μl.
A pretitered aliquot of virus was removed from the freezer (−80° C.) and allowed to thaw slowly to room temperature in a biological safety cabinet. The virus was resuspended and diluted into tissue culture medium such that the amount of virus added to each well in a volume of 50 μl will be the amount determined to give complete cell killing at 6 days post-infection. In general the virus pools produced with the IIIB isolate of HIV required the addition of 5 μl of virus per well.
Each plate contained cell control wells (cells only), virus control wells (cells plus virus), drug toxicity control wells (cells plus drug only), drug colorimetric control wells (drug only) as well as experimental wells (drug plus cells plus virus).
After 6 days of incubation at 37° C. in a 5% CO2 incubator the test plates were analyzed by staining with the tetrazolium dye XTT. XTT-tetrazolium is metabolized by the mitochondrial enzymes of metabolically active cells to a soluble formazan product, allowing the rapid quantitative analysis of the inhibition of HIV-induced cell killing by anti-HIV test substances. On day 6 post-infection plates were removed from the incubator and observed.

N=C(NCCCCCCNC(=N)NC(=N)N1CCN(c2cc3c(cc2F)c(=O)c(C(=O)O)cn3C2CC2)CC1)NC(=N)N1CCN(c2cc3c(cc2F)c(=O)c(C(=O)O)cn3C2CC2)CC1 [BVS-10A]
MIC [1]: < 0.128 µg/mL | MIC [2]: 1.28 to 12.8 µg/mL (≈ 1.4 to 14 µM) | MIC [3]: 0.128 to 1.28 µg/mL (≈ 0.14 to 1.4 µM) | MIC [4]: 0.128 to 1.28 µg/mL (≈ 0.14 to 1.4 µM) | MIC [5]: 1.28 to 12.8 µg/mL (≈ 1.4 to 14 µM) | % CELL VIABILITY (CEM-SS cells; 0.00032 uG/mL, CEM-SS): 100% | CYTOTOXICITY TEST VALUES MEAN O.D. (CEM-SS cells; 0.00032 uG/mL, CEM-SS): 1.317 O.D. | % CELL VIABILITY (CEM-SS cells; 0.001 uG/mL, CEM-SS): 100% | CYTOTOXICITY TEST VALUES MEAN O.D. (CEM-SS cells; 0.001 uG/mL, CEM-SS): 1.323 O.D. | % CELL VIABILITY (CEM-SS cells; 0.0032 uG/mL, CEM-SS): 100% | CYTOTOXICITY TEST VALUES MEAN O.D. (CEM-SS cells; 0.0032 uG/mL, CEM-SS): 1.307 O.D. | % CELL VIABILITY (CEM-SS cells; 0.01 uG/mL, CEM-SS): 100% | CYTOTOXICITY TEST VALUES MEAN O.D. (CEM-SS cells; 0.01 uG/mL, CEM-SS): 1.364 O.D. | % CELL VIABILITY (CEM-SS cells; 0.032 uG/mL, CEM-SS): 100% | CYTOTOXICITY TEST VALUES MEAN O.D. (CEM-SS cells; 0.032 uG/mL, CEM-SS): 1.339 O.D. | % CELL VIABILITY (CEM-SS cells; 0.1 uG/mL, CEM-SS): 100% | CYTOTOXICITY TEST VALUES MEAN O.D. (CEM-SS cells; 0.1 uG/mL, CEM-SS): 1.369 O.D. | % CELL VIABILITY (CEM-SS cells; 0.32 uG/mL, CEM-SS): 100% | CYTOTOXICITY TEST VALUES MEAN O.D. (CEM-SS cells; 0.32 uG/mL, CEM-SS): 1.385 O.D. | % CELL VIABILITY (CEM-SS cells; 1 uG/mL, CEM-SS): 100% | CYTOTOXICITY TEST VALUES MEAN O.D. (CEM-SS cells; 1 uG/mL, CEM-SS): 1.512 O.D. | % CELL VIABILITY (CEM-SS cells; 3.2 uG/mL, CEM-SS): 100% | CYTOTOXICITY TEST VALUES MEAN O.D. (CEM-SS cells; 3.2 uG/mL, CEM-SS): 1.556 O.D. | % CELL VIABILITY (CEM-SS cells; 10 uG/mL, CEM-SS): 100% | CYTOTOXICITY TEST VALUES MEAN O.D. (CEM-SS cells; 10 uG/mL, CEM-SS): 1.804 O.D. | % CELL VIABILITY (CEM-SS cells; 32 uG/mL, CEM-SS): 100% | CYTOTOXICITY TEST VALUES MEAN O.D. (CEM-SS cells; 32 uG/mL, CEM-SS): 2.390 O.D. | % CELL VIABILITY (CEM-SS cells; 100 uG/mL, CEM-SS): 100% | CYTOTOXICITY TEST VALUES MEAN O.D. (CEM-SS cells; 100 uG/mL, CEM-SS): 1.797 O.D. | TC 25% (CEM-SS cells; CEM-SS, XTT): >100.00 UG/mL | TC 50% (CEM-SS cells; CEM-SS, XTT): >100.00 UG/mL | TC 95% (CEM-SS cells; CEM-SS, XTT): >100.00 UG/mL | toxicity in CEM-SS cells (CEM-SS cells; at concentrations up to 100 μg/mL): nontoxic; also recorded: No toxicity | IC50 (HIV-1): 16.6 µg/mL (≈ 18.2 µM) | IC50 (HIV-1; read-out: 50% inhibition of cell killing): 12 µg/mL (≈ 13.1 µM) | IC50 (HIV-1; read-out: calculated IC50): 16.6 µg/mL (≈ 18.2 µM)
